From paper PMC8179433, “Rational designing of glyco-nanovehicles to target cellular heterogeneity” (Chemical Science, 2021) come the findings set out here.

Read-outs that look alike come from different tables or passages of the source.

Test [1] has as its target T1, HB-EGF (Homo sapiens, UniProt Q99075).
T1 construct: gene HBEGF
Kind of test: SPR; also competition ELISA against immobilized heparin (IC50 =[…]). Format: binding.

Test [2] addresses T1, HB-EGF. The test is described as above. Format: binding. The source holds these as a separate data set.

T1 sequence (Q99075 63-148): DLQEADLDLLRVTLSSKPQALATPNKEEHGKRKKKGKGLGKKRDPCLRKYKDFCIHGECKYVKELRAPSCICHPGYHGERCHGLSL

For orientation: Kd means the equilibrium constant for the complex coming apart. A lower Kd goes with a tighter complex. Molecule `CC(=O)N[C@H]1[C@@H](O[C@H]2[C@H](O)[C@@H](O)[C@H](OCCCN)O[C@H]2C(=O)O)O[C@H](COS(=O)(=O)O)[C@@H](O[C@@H]2O[C@@H](C(=O)O)[C@@H](O[C@H]3O[C@H](COS(=O)(=O)O)[C@@H](O)[C@H](O)[C@H]3NC(C)=O)[C@H](O)[C@H]2O)[C@@H]1O` [compound 7, 6-O-S HS tetrasaccharide (7)] came in with a Kd on HB-EGF [1] of 11.1 µM. This lies in the double-digit micromolar range. The molecule `CC(=O)N[C@H]1[C@@H](O[C@H]2[C@H](O)[C@@H](O)[C@H](OCCCN)O[C@H]2C(=O)O)O[C@H](COP(=O)(O)O)[C@@H](O[C@@H]2O[C@@H](C(=O)O)[C@@H](O[C@H]3O[C@H](COP(=O)(O)O)[C@@H](O)[C@H](O)[C@H]3NC(C)=O)[C@H](O)[C@H]2O)[C@@H]1O` [compound 8, 6-O-phosphated HS tetrasaccharide (8)] yielded a Kd at HB-EGF [2] of 11.1 µM.
